Patent publication US6906098B2, “Mixed steroidal 1,2,4,5-tetraoxane compounds and methods of making and using thereof” (priority 2002, dated 2005)
Converted amounts (≈) assume the structure as drawn. “And” between values parts separate entries of the source, which are not always exact repeats. Equal entries are not always repeated. Where two headings read alike, the source gives them in different places.

What was measured:
[1] = test system: Plasmodium falciparum chloroquine-susceptible strain D6; assay: In vitro antimalarial drug susceptibility assay (radiolabeled hypoxanthine incorporation), strain D6; assay type: cell-based; conditions: for Strain D6 IC50: growth inhibition, chloroquine-susceptible strain D6, 66 h incubation; for IC50: Plasmodium falciparum, D6, 66 h
[2] = test system: Plasmodium falciparum chloroquine-resistant strain W2; assay: microbe, parasite or virus in culture; assay type: cell-based; conditions: for Strain W2 IC50: growth inhibition, chloroquine-resistant strain W2, 66 h incubation
[3] = test system: D6 and W2 P. falciparum clones; assay type: cell-based, Plasmodium falciparum; conditions: for Resistance Index: IC50 (W2)/IC50 (D6) ratio; for antimalarial activity in words: D6 and W2 clones, Table 2
[4] = test system: M. tuberculosis H37Rv; assay: Minimum inhibitory concentration (MIC) in the MABA; assay type: cell-based, Mycobacterium tuberculosis
Method: (§1) The activity of the compounds of the present invention against Mycobacterium tuberculosis was determined using the following assays conducted by the National Institute of Allergy and Infectious Diseases (NIAID) supports a TB drug acquisition and screening program, the TAACF.
2. Minimum Inhibitory Concentration (MIC)
The MIC is defined as the lowest concentration effecting a reduction in fluorescence of 90% relative to controls. Minimum compound requirements: 1.0 mg.

[5] = test system: Mycobacterium tuberculosis H37Rv (ATCC 27294); assay: Primary screen, Microplate Alamar Blue Assay (MABA), percent inhibition; assay type: cell-based; conditions: primary screening at 6.25 μg/ml; for inhibition at 6.25 µg/mL: Mycobacterium tuberculosis
Method: as §1
To determine the percent inhibition the following assay was conducted. Primary screening was conducted at 6.25 μg/ml (or the molar equivalent of highest molecular weight compound in a given series of congeners) against Mycobacterium tuberculosis H37Rv (ATCC 27294) in BACTEC 12B medium using the Microplate Alamar Blue Assay (MABA). See Collins, L. and S. G. Franzblau. 1997. Microplate alamar blue assay versus BACTEC 460 system for high-throughput screening of compounds against Mycobacterium tuberculosis and Mycobacterium avium. Antimicrob Agents Chemother 41:1004-9, which is herein incorporated by reference.
Minimum compound requirements: 1.0 mg.

[6] = Table 5, Alamar assay, M. tuberculosis H37Rv
[7] = Mycobacterium tuberculosis, H37RV, Table 3, H37Rv, read-out: MIC
[8] = Mycobacterium tuberculosis, H37RV, Table 5, Alamar assay, M. tuberculosis H37Rv, read-out: MIC
[9] = Table 3, H37Rv, read-out: Inhibition (%)
[10] = Table 5, Alamar assay, read-out: % Inhib

Compound	Strain D6 IC50 [1]	Strain W2 IC50 [2]	Resistance Index [3]	MIC [4, 6]	% Inhib ([5]; Table 5, Alamar assay)	also measured
CCNC(=O)CCC(C)[C@H]1CCC2C3C(C[C@H](OC(C)=O)[C@@]21C)[C@@]1(C)CCC2(C[C@H]1C[C@H]3OC(C)=O)OOC1(CCC(c3ccccc3)CC1)OO2 (single isomer, unassigned) [Compound 1C52, N-Ethyl-7α,12α-Diacetoxy-5β-cholan-24-amide-3-spiro-6′-(1′,2′,4′,5′-tetraoxacyclohexane)-3′-spiro-1″-((4″S or R)-phenyl)cyclohexane]	0.03279 µg/mL	0.03258 µg/mL	0.99	>6.25 µg/mL	62%	MIC ([4]; Table 3, H37Rv): >6.25 µg/mL; Inhibition (%) ([5]; Table 3, H37Rv): 62%
COC(=O)CCC(C)[C@H]1CCC2C3C(C[C@H](OC(C)=O)[C@@]21C)[C@@]1(C)CCC2(C[C@H]1C[C@H]3OC(C)=O)OOC1(CCC(C(C)(C)C)CC1)OO2 (single isomer, unassigned) [8l/1B09b, Methyl 7α,12α-diacetoxy-5β-cholan-24-oate-3-spiro-6′-(1′,2′,4′,5′-tetraoxacyclohexane)-3′-spiro-1″-(4″R or S)- and (4″S or R)-t-butyl)cyclohexane]	0.03584 µg/mL	0.01919 µg/mL	0.54	>6.25 µg/mL	0%	times more active than bis(1,1-dioxy-4-tert-butylcyclohexane) ([3]; antimalarial activity versus literature tetraoxane): ca. 3.7 times
CCCNC(=O)CCC(C)[C@H]1CCC2C3C(C[C@H](OC(C)=O)[C@@]21C)[C@@]1(C)CCC2(C[C@H]1C[C@H]3OC(C)=O)OOC1(CCC(CC)CC1)OO2 (single isomer, unassigned) [32/1C43, N-(n-Propyl)-7α,12α-Diacetoxy-5β-cholan-24-amide-3-spiro-6′-(1′,2′,4′,5′-tetraoxacyclohexane)-3′-spiro-1″-((4″S or R)-ethyl)cyclohexane]	0.0622 µg/mL	0.08464 µg/mL	1.36	>6.25 µg/mL	71%	antimalarial activity in words [3]: inactive
CC(=O)O[C@H]1CC2C(C3CC[C@H](C(C)CCC(=O)O)[C@]31C)[C@H](OC(C)=O)C[C@@H]1CC3(CC[C@]21C)OOC1(CCC(C)CC1)OO3 (stereo partly drawn) [9g/1C17]	0.00097 µg/mL	0.00062 µg/mL	0.64	–	–	MIC [4, 7]: > 6.25 µg/mL and > 9.84 µM; MIC [4, 8]: > 6.25 µg/mL; inhibition at 6.25 µg/mL [5, 9]: 21%; inhibition at 6.25 µg/mL [5, 10]: 21%
CCCNC(=O)CCC(C)[C@H]1CCC2C3C(C[C@H](OC(C)=O)[C@@]21C)[C@@]1(C)CCC2(C[C@H]1C[C@H]3OC(C)=O)OOC1(CCC(c3ccccc3)CC1)OO2 (single isomer, unassigned) [Compound 1C53, N-(n-Propyl)-7α,12α-Diacetoxy-5β-cholan-24-amide-3-spiro-6′-(1′,2′,4′,5′-tetraoxacyclohexane)-3′-spiro-1″-((4″S or R)-phenyl)cyclohexane]	0.02428 µg/mL	0.02454 µg/mL	1.01	>6.25 µg/mL	59%	MIC ([4]; Table 3, H37Rv): >6.25 µg/mL; Inhibition (%) ([5]; Table 3, H37Rv): 59%
CCCNC(=O)CCC(C)[C@H]1CCC2C3C(C[C@H](OC(C)=O)[C@@]21C)[C@@]1(C)CCC2(C[C@H]1C[C@H]3OC(C)=O)OOC1(CCC(c3ccccc3)CC1)OO2 (single isomer, unassigned) [Compound 1C48, N-(n-Propyl)-7α,12α-Diacetoxy-5β-cholan-24-amide-3-spiro-6′-(1′,2′,4′,5′-tetraoxacyclohexane)-3′-spiro-1″-((4″R or S)-phenyl)cyclohexane]	0.00659 µg/mL	0.00672 µg/mL	1.02	–	–	MIC [4, 7]: > 6.25 µg/mL; MIC [4, 8]: > 6.25 µg/mL; inhibition at 6.25 µg/mL [5, 9]: 46%; inhibition at 6.25 µg/mL [5, 10]: 46%
CCNC(=O)CCC(C)[C@H]1CCC2C3C(C[C@H](OC(C)=O)[C@@]21C)[C@@]1(C)CCC2(C[C@H]1C[C@H]3OC(C)=O)OOC1(CCC(CC)CC1)OO2 (single isomer, unassigned) [31/1C42, N-Ethyl-7α,12α-Diacetoxy-5β-cholan-24-amide-3-spiro-6′-(1′,2′,4′,5′-tetraoxacyclohexane)-3′-spiro-1″-((4″S or R)-ethyl)cyclohexane]	0.01564 µg/mL	0.01222 µg/mL	0.78	>6.25 µg/mL	83%	–
CCCNC(=O)CCC(C)[C@H]1CCC2C3C(C[C@H](OC(C)=O)[C@@]21C)[C@@]1(C)CCC2(C[C@H]1C[C@H]3OC(C)=O)OOC1(CCC(C)CC1)OO2 (stereo partly drawn) [24/1C33, N-(n-Propyl)-7α,12α-diacetoxy-5β-cholan-24-amide-3-spiro-6′-(1′,2′,4′,5′-tetraoxacyclohexane)-3′-spiro-1″-((4″S)-methyl)cyclohexane]	0.05741 µg/mL	0.05611 µg/mL	0.98	>6.25 µg/mL	0%	antimalarial activity in words [3]: inactive
OC(c1cc(C(F)(F)F)nc2c(C(F)(F)F)cccc12)C1CCCCN1 (stereo not drawn) [Mefloquine, reference compound]	–	–	–	–	–	IC50 ([1]; read-out: Strain D6 IC50, growth inhibition, chloroquine-susceptible strain D6, 66 h incubation): 0.0106 µg/mL (≈ 0.0281 µM)
Methyl 7α,12α-diacetoxy-5β-cholan-24-oate-3-spiro-6′-(1′,2′,4′,5′-tetraoxacyclohexane)-3′-spiro-1″-((4″R or S)- and (4″S or R)-ethoxycarbonyl)cyclohexane [Compound 1B12a]	0.00672 µg/mL	0.01256 µg/mL	1.87	–	–	–
CCN(CC)CCCC(C)Nc1ccnc2cc(Cl)ccc12 (stereo not drawn) [Chloroquine, reference compound]	–	–	–	–	–	IC50 ([1]; read-out: Strain D6 IC50): 0.00371 µg/mL (≈ 0.0116 µM); IC50 ([2]; Plasmodium falciparum, W2, 66 h, read-out: Strain W2 IC50): 0.0883 µg/mL (≈ 0.276 µM)
Methyl 7α,12α-diacetoxy-5β-cholan-24-oate-3-spiro-6′-(1′,2′,4′,5′-tetraoxacyclohexane)-3′-spiro-1″-((4″R or S)- and (4″S or R)-ethoxycarbonyl)cyclohexane [Compound 1B12b]	0.03101 µg/mL	0.05492 µg/mL	1.77	–	–	–
